# According to publication PMC11597207, “Synthesis and Anti-Inflammatory and Analgesic Potentials of Ethyl 2-(2,5-Dioxo-1-Phenylpyrrolidin-3-yl)-2-Methylpropanoate” (Pharmaceuticals, 2024):
# Key:
# COX-1 = molecular target: T1, COX-1 (Ovis aries, UniProt P05979); test: COX-1 inhibitory assay; assay type: biochemical, sheep
# T1 construct: purchased Cayman Chemical Batch No.: A4570
# T1 sequence (P05979 25-600): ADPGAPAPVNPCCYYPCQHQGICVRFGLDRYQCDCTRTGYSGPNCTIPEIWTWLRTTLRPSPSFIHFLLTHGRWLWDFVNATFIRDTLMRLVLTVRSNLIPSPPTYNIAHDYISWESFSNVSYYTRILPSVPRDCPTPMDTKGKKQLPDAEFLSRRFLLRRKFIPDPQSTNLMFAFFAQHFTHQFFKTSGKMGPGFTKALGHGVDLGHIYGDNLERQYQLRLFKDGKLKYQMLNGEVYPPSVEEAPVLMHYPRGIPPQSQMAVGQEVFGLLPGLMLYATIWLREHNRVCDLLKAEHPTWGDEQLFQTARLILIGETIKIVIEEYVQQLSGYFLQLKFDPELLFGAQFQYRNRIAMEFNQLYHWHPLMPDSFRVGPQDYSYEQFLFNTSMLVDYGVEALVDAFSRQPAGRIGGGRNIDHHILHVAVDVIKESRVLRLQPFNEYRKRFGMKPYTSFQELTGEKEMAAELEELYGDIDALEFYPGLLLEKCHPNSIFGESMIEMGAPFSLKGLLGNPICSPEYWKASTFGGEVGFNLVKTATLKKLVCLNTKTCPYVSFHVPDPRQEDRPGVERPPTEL
# Experimental: The inhibitory potential of synthesized MAK01 was evaluated using a COX-1 inhibitory assay. This utilized a solution of COX-1 enzymes derived from sheep, adhering to previous protocols. The COX-1 enzyme solution was prepared with a specific concentration. The concentration was set at 0.7–0.8 μg per 10 μL. The activation of the enzymes was achieved by taking and mixing 10 μL and 50 μL of the […] enzyme solution and a co-factor solution, respectively. This mixture was then cooled at 4 °C in an ice bucket for a duration of five to six minutes. As for the preparation of the co-factor solution, it began with 0.1 M Tris buffer, which was maintained at a pH of 8.0. To this buffer, 1 mM of hematin was added. Next, 0.9 mM of glutathione was mixed into the solution. Further, the solution was enriched with 0.24 mM of TMPD. After the co-factor solution, specific test samples were prepared. These samples were of a certain concentration and diluted to 20 μL in volume. These test samples were then mixed with 60 μL of the […] enzyme solution. Once the mixture was prepared, it was left undisturbed at room temperature. The duration for this standing period ranged from five to ten minutes. Subsequent to this resting period, 20 μL of 30 mM arachidonic acid was added. This addition served to initiate the reaction within the solution. Post initiation of the reaction, the solution underwent an incubation period. The solution was kept at a temperature of 37 °C. The incubation was allowed to continue for a total of 15 min. The final solution underwent an absorbance measurement. This was performed using a UV–visible spectrophotometer. Specifically, the measurement was made at a 570 nm wavelength. Similarly, the test samples in various concentrations were processed and analyzed using the same procedure. Using the absorbance value over time, the inhibition of the COX-1 enzyme was quantified.
# Using the following formulation, the percent inhibition for each sample was calculated. % Inhibition=Abs. test sample−Abs. background/Abs. solvent blank−Abs. background×100
# [1] = Solubility observation of the isolated compound; assay type: physicochemical
structure (smiles),measurement,setting,value
"CCOC(=O)C(C)(C)C1CC(=O)N(c2ccccc2)C1=O (stereo not drawn) [MAK01, ethyl 2-(2,5-dioxo-1-phenylpyrrolidin-3-yl)-2-methylpropanoate]",IC50,COX-1,1.09 mM
same,COX-1 percent inhibition,COX-1; 62.50 μg/mL,32%
same,inhibition at 62.5 µg/mL,"COX-1; 62.50 μg/mL, read-out: COX-1 percent inhibition",31.5%
same,COX-1 percent inhibition,COX-1; 125 μg/mL,38%
same,inhibition at 125 µg/mL,"COX-1; 125 μg/mL, read-out: COX-1 percent inhibition",37.5%
same,COX-1 percent inhibition,COX-1; 250 μg/mL,46%
same,inhibition at 250 µg/mL,"COX-1; 250 μg/mL, read-out: COX-1 percent inhibition",45.8%
same,COX-1 percent inhibition,COX-1; 500 μg/mL,56%
same,inhibition at 500 µg/mL,"COX-1; 500 μg/mL, read-out: COX-1 percent inhibition",56.5%
same,COX-1 percent inhibition,COX-1; 1000 μg/mL,65%
same,inhibition at 1000 µg/mL,"COX-1; 1000 μg/mL, read-out: COX-1 percent inhibition",64.8%
same,Solubility in organic solvents,[1],soluble in polar organic solvents
